The source of these data is PubChem BioAssay (NCI).

Molecules are shown by their SMILES.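 Cells were grown in 96-well plates and exposed to each compound for 48 hours at five concentrations; endpoints were interpolated linearly between bracketing concentrations, or set to the highest concentration if not reached. GI50 marks 50% less growth. The concentration for full growth arrest is given as TGI.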 Where only a bound is given, the exact number is not on record here.

Test systems include SF-268 CNS; HCT-15 colon; SN12C renal; HOP-92 NSCLC; K-562 leukemia; OVCAR-3 ovarian; A498 renal; RPMI-8226 leukemia; OVCAR-4 ovarian.
Holding throughout (test): NCI tumour cell line growth inhibition, 48 h

As to `C/C=C(/CCCCNCCCC)[Si](C)(C)C`, the TGI stood at 26.2 µM in the assay with SF-268 CNS; 30 µM in the assay with HCT-15 colon; 30.5 µM with SN12C renal; 20.9 µM in the assay on HOP-92 NSCLC; 45 µM with K-562 leukemia; 28.3 µM with OVCAR-3 ovarian. The compound further gave a TGI with A498 renal of 29.4 µM.

Consider `CC(C)=CC(=O)CC(=O)C(=O)Nc1ccc(Cl)c(Cl)c1`, for which the TGI in the assay on SF-268 CNS, in the assay on RPMI-8226 leukemia, in the assay with OVCAR-4 ovarian, with HCT-15 colon, in the assay on SN12C renal and in the assay on K-562 leukemia was more than 100 µM throughout. The TGI in the assay on OVCAR-3 ovarian and with A498 renal was more than 100 µM throughout.

Regarding `CN(C)C(=O)C1CCC(=C2C(=O)OC(C)(C)OC2=O)N1C` (stereo not drawn), the TGI in the assay with SF-268 CNS, in the assay with OVCAR-4 ovarian, with HCT-15 colon, in the assay on SN12C renal, with HOP-92 NSCLC and in the assay with K-562 leukemia was more than 100 µM each time. Besides, the TGI in the assay with OVCAR-3 ovarian and with A498 renal was more than 100 µM in each case.

Take `CC1CC2(CC[C@@H]1O)OCCO2` (stereo partly drawn): the TGI with RPMI-8226 leukemia, with OVCAR-4 ovarian, in the assay with HCT-15 colon, in the assay on SN12C renal, in the assay with HOP-92 NSCLC and with K-562 leukemia was more than 100 µM in each case. The TGI in the assay with OVCAR-3 ovarian and in the assay on A498 renal was more than 100 µM throughout.

On to `O=C1C(=O)N(C2C3CC4CC(C3)CC2C4)C(=O)C(=O)C1c1nc2ccccc2o1` (stereo not drawn), for which the TGI with SF-268 CNS, with RPMI-8226 leukemia, in the assay on OVCAR-4 ovarian, with HCT-15 colon, in the assay with SN12C renal and in the assay with HOP-92 NSCLC was more than 100 µM throughout. Further, the TGI with K-562 leukemia came out at 77.4 µM; in the assay on OVCAR-3 ovarian, 54 µM.

Turning to `CN(C)CCNC(=O)c1ccc(Cl)c2c(Nc3ccc(S(N)(=O)=O)cc3)c3ccccc3nc12`, the TGI in the assay with SF-268 CNS came to 13.8 µM; in the assay on RPMI-8226 leukemia, 29.1 µM; with OVCAR-4 ovarian, 6.22 µM; with HCT-15 colon, 15.5 µM; in the assay with SN12C renal, 10.1 µM; in the assay with HOP-92 NSCLC it was 8.54 µM. The results for the TGI with K-562 leukemia and in the assay on A498 renal were 11.4 µM and 13.4 µM, respectively.

With `CC(=O)C1=C([O-])C(C)OC1=O.CC(=O)C1=C([O-])C(C)OC1=O.[NH-]C1CCCC[C@H]1[NH-].[Pt+4]` (stereo not drawn), the GI50 is more than 100 µM in the assay on SF-268 CNS; 8.72 µM with RPMI-8226 leukemia; 88.9 µM in the assay on OVCAR-4 ovarian; 67.4 µM with HCT-15 colon; 41.6 µM with SN12C renal; 61.2 µM in the assay with K-562 leukemia. The values for the GI50 with OVCAR-3 ovarian and in the assay with A498 renal were more than 100 µM and 15.8 µM, respectively. The TGI in the assay with SF-268 CNS, in the assay on RPMI-8226 leukemia, in the assay with OVCAR-4 ovarian, in the assay on HCT-15 colon, in the assay with SN12C renal and in the assay with K-562 leukemia was more than 100 µM throughout. The TGI with OVCAR-3 ovarian and with A498 renal was more than 100 µM each time.

`CCC1CN2CCc3cc(OC)c(OC)cc3C2CC1CC1c2cc(OC)c(OC)cc2CCN1C(=O)CNC(=O)OC(C)(C)C` (stereo not drawn): the TGI in the assay with SF-268 CNS turned out to be 70.3 µM; in the assay with RPMI-8226 leukemia, 48.6 µM; in the assay on OVCAR-4 ovarian, 7.98 µM; in the assay on HCT-15 colon, 68.7 µM; in the assay on SN12C renal it was 90 µM; in the assay on K-562 leukemia, 14.9 µM. In addition, the TGI with OVCAR-3 ovarian was found to be 61.7 µM; in the assay on A498 renal, 56.2 µM.

With `FC(F)(F)c1ccc2nc(Nc3ccc(Cl)c(Cl)c3)c(-c3ccccc3)nc2c1`, the TGI with SF-268 CNS, with RPMI-8226 leukemia, in the assay on HCT-15 colon, with SN12C renal, in the assay on HOP-92 NSCLC and in the assay on OVCAR-3 ovarian was more than 100 µM in each case.

`COc1ccc2cc3n(c2c1)CCc1cc(OC)c(OC)cc1-3`: the TGI in the assay with SF-268 CNS, in the assay on OVCAR-4 ovarian, in the assay with SN12C renal, in the assay with HOP-92 NSCLC, with K-562 leukemia and in the assay with A498 renal was more than 100 µM each time.

For `CCCCCCCCCCCCC(=O)[O-].CCCCCCCCCCCCC(=O)[O-].CCCCCCCCCCCCC(=O)[O-].CCCCCCCCCCCCC(=O)[O-].[Mo+2].[Mo+2]`, the GI50 was 17.3 µM in the assay on SF-268 CNS; 4.08 µM in the assay with RPMI-8226 leukemia; 10.2 µM in the assay on OVCAR-4 ovarian; 10.4 µM with HCT-15 colon; 3.56 µM in the assay with HOP-92 NSCLC; 10.9 µM with K-562 leukemia. The GI50 with OVCAR-3 ovarian is 12.4 µM. Also, the TGI was determined as 45.1 µM in the assay with SF-268 CNS; 37 µM with RPMI-8226 leukemia; 24.2 µM with OVCAR-4 ovarian; 22.1 µM in the assay on HCT-15 colon; 9.35 µM in the assay with HOP-92 NSCLC; 79.8 µM in the assay with K-562 leukemia. The TGI in the assay with OVCAR-3 ovarian was found to be 24.9 µM.

With `Cc1cccc(C)c1NC(=O)CCCC(=O)C1CCC/C1=N\NC(=O)C(=O)NN` (stereo not drawn), the TGI in the assay with SF-268 CNS, in the assay with RPMI-8226 leukemia, in the assay with OVCAR-4 ovarian, in the assay on HCT-15 colon, in the assay on SN12C renal and in the assay with K-562 leukemia was more than 100 µM in each case. In addition, the TGI in the assay with OVCAR-3 ovarian and in the assay with A498 renal was more than 100 µM in each case.

With `O=C(Cc1ccccc1)N/N=C(\C1=Nc2ccc([N+](=O)[O-])cc2NC1O)C(O)c1ccc([N+](=O)[O-])cc1` (stereo not drawn), the TGI in the assay on SF-268 CNS, in the assay on RPMI-8226 leukemia, with HCT-15 colon, in the assay on SN12C renal, in the assay on HOP-92 NSCLC and in the assay on K-562 leukemia was more than 100 µM in each case. In addition, the TGI with OVCAR-3 ovarian and with A498 renal was more than 100 µM in each case.

Turning to `COc1ccc2c(C(=O)O)cc3cc(OC)c(OC)cc3c2c1`, the TGI in the assay on SF-268 CNS, in the assay with RPMI-8226 leukemia, with HCT-15 colon, in the assay on SN12C renal, in the assay on HOP-92 NSCLC and in the assay on K-562 leukemia was more than 100 µM in each case. In addition, in the assay on OVCAR-3 ovarian, the TGI was more than 100 µM.

For the compound `Cc1cccc(C(C)(C)C)c1NC(=O)C(=O)C(c1cnc2ccccc2n1)[N+](=O)[O-]` (stereo not drawn), the TGI in the assay with SF-268 CNS, with RPMI-8226 leukemia, in the assay with OVCAR-4 ovarian, in the assay with HCT-15 colon, in the assay on SN12C renal and in the assay on HOP-92 NSCLC was more than 100 µM in each case. Moreover, the TGI with K-562 leukemia and in the assay with A498 renal was more than 100 µM each time.
